Measurements reported in patent US12077503B2, “Substituted cyclic amides and their use as herbicides” (FMC CORPORATION, priority 2015, dated 2024).

Legend:
Format in all cases: in vivo
[1] = system: velvetleaf (Abutilon theophrasti); assay: Test G Pre-Emergence Protocol; settings: evaluated after 13 days; for plant damage rating, Velvetleaf: 62.5 g ai/ha, 100=total damage to plant, 0=no damage to plant
Method: (§1) Seeds of corn (Zea mays), giant foxtail (Setaria faberi), barnyardgrass (Echinochloa crus-galli), ivy-leaved morning glory (Ipomoea hederacea), redroot pigweed (Amaranthus retroflexus) and velvetleaf (Abutilon theophrasti) were sown in standard soil in pots. After cultivation for one day under controlled conditions in a glasshouse (at 24/16° C., day/night; 14 hours light; 65% humidity), the plants were sprayed with an aqueous spray solution derived from the formulation of the technical active ingredient in acetone/water (50:50) solution containing 0.5% Tween 20 (polyoxyethylene sorbitan monolaurate, CAS RN 9005-64-5) to give a final dose of 15.625, 62.5 or 250 g/ha of test compound.
(§2) The test plants were then grown on under controlled conditions in a glasshouse (at 24/16° C., day/night; 14 hours light; 65% humidity) and watered twice daily. After 13 days the test was evaluated (100=total damage to plant; 0=no damage to plant). A dash (-) means no test result.

[2] = system: barnyardgrass (Echinochloa crus-galli); assay: Test G Pre-Emergence Protocol; settings: evaluated after 13 days; for plant damage rating, Barnyardgrass: 62.5 g ai/ha, 100=total damage to plant, 0=no damage to plant
Method: as §1, §2

[3] = system: giant foxtail (Setaria faberi); assay: Test G Pre-Emergence Protocol; settings: evaluated after 13 days; for plant damage rating, Foxtail, Giant: 62.5 g ai/ha, 100=total damage to plant, 0=no damage to plant
Method: as §1, §2

corn (Zea mays) [4] = assay: Test G Pre-Emergence Protocol; settings: evaluated after 13 days; for plant damage rating, Corn: 62.5 g ai/ha, 100=total damage to plant, 0=no damage to plant
Method: as §1, §2

[5] = system: redroot pigweed (Amaranthus retroflexus); assay: Test G Pre-Emergence Protocol; settings: evaluated after 13 days; for plant damage rating, Pigweed, Redroot: 62.5 g ai/ha, 100=total damage to plant, 0=no damage to plant
Method: as §1, §2

[6] = system: ivy-leaved morning glory (Ipomoea hederacea); assay: Test G Pre-Emergence Protocol; settings: evaluated after 13 days; for Morning-glory, Ivy-leaved damage rating (100=total damage to plant; 0=no damage to plant): 15.625 g ai/ha; for plant damage rating, Morningglory, Ivy-leaved: 62.5 g ai/ha, 100=total damage to plant, 0=no damage to plant; for Morningglory, Ivy-leaved damage rating (100=total damage to plant; 0=no damage to plant): 250 g ai/ha
Method: as §1, §2

[7] = system: velvetleaf (Abutilon theophrasti); assay: Test G Post-Emergence Protocol; settings: for Velvetleaf damage rating: 15.625 g ai/ha, evaluated after 13 days (100=total damage to plant; 0=no damage to plant); for Velvetleaf damage rating (100=total damage to plant; 0=no damage to plant): 62.5 g ai/ha; for Velvetleaf damage rating (100=total damage to plant; 0=no damage to plant) / damage to plant, Velvetleaf (100=total damage to plant; 0=no damage to plant): evaluated after 13 days; for damage to plant, Velvetleaf (100=total damage to plant; 0=no damage to plant): 250 g ai/ha
Method: as §1, with “8 days” for “one day”
as §2

[8] = system: barnyardgrass (Echinochloa crus-galli); assay: Test G Post-Emergence Protocol; settings: for Barnyardgrass damage rating: 15.625 g ai/ha, evaluated after 13 days (100=total damage to plant; 0=no damage to plant); for Barnyardgrass damage rating (100=total damage to plant; 0=no damage to plant): 62.5 g ai/ha; for Barnyardgrass damage rating (100=total damage to plant; 0=no damage to plant) / damage to plant, Barnyardgrass (100=total damage to plant; 0=no damage to plant): evaluated after 13 days; for damage to plant, Barnyardgrass (100=total damage to plant; 0=no damage to plant): 250 g ai/ha
Method: as §1, with “8 days” for “one day”
as §2

[9] = system: giant foxtail (Setaria faberi); assay: Test G Post-Emergence Protocol; settings: for Foxtail, Giant damage rating: 15.625 g ai/ha, evaluated after 13 days (100=total damage to plant; 0=no damage to plant); for Foxtail, Giant damage rating (100=total damage to plant; 0=no damage to plant): 62.5 g ai/ha; for Foxtail, Giant damage rating (100=total damage to plant; 0=no damage to plant) / damage to plant, Foxtail, Giant (100=total damage to plant; 0=no damage to plant): evaluated after 13 days; for damage to plant, Foxtail, Giant (100=total damage to plant; 0=no damage to plant): 250 g ai/ha
Method: as §1, with “8 days” for “one day”
as §2

corn (Zea mays) [10] = assay: Test G Post-Emergence Protocol; settings: for Corn damage rating: 15.625 g ai/ha, evaluated after 13 days (100=total damage to plant; 0=no damage to plant); for Corn damage rating (100=total damage to plant; 0=no damage to plant): 62.5 g ai/ha; for Corn damage rating (100=total damage to plant; 0=no damage to plant) / damage to plant, Corn (100=total damage to plant; 0=no damage to plant): evaluated after 13 days; for damage to plant, Corn (100=total damage to plant; 0=no damage to plant): 250 g ai/ha
Method: as §1, with “8 days” for “one day”
as §2

[11] = system: redroot pigweed (Amaranthus retroflexus); assay: Test G Post-Emergence Protocol; settings: for Pigweed, Redroot damage rating: 15.625 g ai/ha, evaluated after 13 days (100=total damage to plant; 0=no damage to plant); for Pigweed, Redroot damage rating (100=total damage to plant; 0=no damage to plant): 62.5 g ai/ha; for Pigweed, Redroot damage rating (100=total damage to plant; 0=no damage to plant) / damage to plant, Pigweed, Redroot (100=total damage to plant; 0=no damage to plant): evaluated after 13 days; for damage to plant, Pigweed, Redroot (100=total damage to plant; 0=no damage to plant): 250 g ai/ha
Method: as §1, with “8 days” for “one day”
as §2

[12] = system: ivy-leaved morning glory (Ipomoea hederacea); assay: Test G Post-Emergence Protocol; settings: for Morningglory, Ivy-leaved damage rating: 15.625 g ai/ha, evaluated after 13 days (100=total damage to plant; 0=no damage to plant); for Morningglory, Ivy-leaved damage rating (100=total damage to plant; 0=no damage to plant): 62.5 g ai/ha; for Morningglory, Ivy-leaved damage rating (100=total damage to plant; 0=no damage to plant) / damage to plant, Morningglory, Ivy-leaved (100=total damage to plant; 0=no damage to plant): evaluated after 13 days; for damage to plant, Morningglory, Ivy-leaved (100=total damage to plant; 0=no damage to plant): 250 g ai/ha
Method: as §1, with “8 days” for “one day”
as §2

SMILES | Velvetleaf damage rating (100=total damage to plant; 0=no damage to plant) ([1]; 15.625 g ai/ha) | plant damage rating, Velvetleaf [1] | Velvetleaf damage rating (100=total damage to plant; 0=no damage to plant) ([1]; 250 g ai/ha) | Barnyardgrass damage rating (100=total damage to plant; 0=no damage to plant) ([2]; 15.625 g ai/ha) | plant damage rating, Barnyardgrass [2] | Barnyardgrass damage rating (100=total damage to plant; 0=no damage to plant) ([2]; 250 g ai/ha) | Foxtail, Giant damage rating (100=total damage to plant; 0=no damage to plant) ([3]; 15.625 g ai/ha) | plant damage rating, Foxtail, Giant [3] | Foxtail, Giant damage rating (100=total damage to plant; 0=no damage to plant) ([3]; 250 g ai/ha) | Corn damage rating (100=total damage to plant; 0=no damage to plant) (corn (Zea mays) [4]; 15.625 g ai/ha) | plant damage rating, Corn (corn (Zea mays) [4]) | Corn damage rating (100=total damage to plant; 0=no damage to plant) (corn (Zea mays) [4]; 250 g ai/ha) | Pigweed, Redroot damage rating (100=total damage to plant; 0=no damage to plant) ([5]; 15.625 g ai/ha) | plant damage rating, Pigweed, Redroot [5] | Pigweed, Redroot damage rating (100=total damage to plant; 0=no damage to plant) ([5]; 250 g ai/ha) | Morning-glory, Ivy-leaved damage rating (100=total damage to plant; 0=no damage to plant) [6] | plant damage rating, Morningglory, Ivy-leaved [6] | Morningglory, Ivy-leaved damage rating (100=total damage to plant; 0=no damage to plant) [6] | Velvetleaf damage rating [7] | Velvetleaf damage rating (100=total damage to plant; 0=no damage to plant) [7] | also measured
CN1CC(c2ccc(C(F)(F)F)cc2)C(C(=O)Nc2ccncc2[N+](=O)[O-])C1=O (racemic) [Compound 1568] | 0 | 0 | 0 | 0 | 0 | 0 | 0 | 0 | 0 | 0 | 0 | 0 | 0 | 0 | 0 | 0 | 0 | 0 | 0 | 0 | damage to plant, Velvetleaf (100=total damage to plant; 0=no damage to plant) [7]: 0; Barnyardgrass damage rating [8]: 0; Barnyardgrass damage rating (100=total damage to plant; 0=no damage to plant) [8]: 10; damage to plant, Barnyardgrass (100=total damage to plant; 0=no damage to plant) [8]: 20; Foxtail, Giant damage rating [9]: 0; Foxtail, Giant damage rating (100=total damage to plant; 0=no damage to plant) [9]: 0; damage to plant, Foxtail, Giant (100=total damage to plant; 0=no damage to plant) [9]: 0; Corn damage rating (corn (Zea mays) [10]): 0; Corn damage rating (100=total damage to plant; 0=no damage to plant) (corn (Zea mays) [10]): 0; damage to plant, Corn (100=total damage to plant; 0=no damage to plant) (corn (Zea mays) [10]): 10; Pigweed, Redroot damage rating [11]: 0; Pigweed, Redroot damage rating (100=total damage to plant; 0=no damage to plant) [11]: 0; damage to plant, Pigweed, Redroot (100=total damage to plant; 0=no damage to plant) [11]: 0; Morningglory, Ivy-leaved damage rating [12]: 0; Morningglory, Ivy-leaved damage rating (100=total damage to plant; 0=no damage to plant) [12]: 0; damage to plant, Morningglory, Ivy-leaved (100=total damage to plant; 0=no damage to plant) [12]: 0
CN1CC(c2ccc(C(F)(F)F)cc2)C(C(=O)Nc2cccc(Cl)c2[N+](=O)[O-])C1=O (racemic) [Compound 1639] | 0 | 0 | 0 | 0 | 10 | 30 | 30 | 60 | 80 | 0 | 0 | 0 | 0 | 20 | 30 | 0 | 0 | 0 | 0 | 0 | damage to plant, Velvetleaf (100=total damage to plant; 0=no damage to plant) [7]: 20; Barnyardgrass damage rating [8]: 10; Barnyardgrass damage rating (100=total damage to plant; 0=no damage to plant) [8]: 30; damage to plant, Barnyardgrass (100=total damage to plant; 0=no damage to plant) [8]: 60; Foxtail, Giant damage rating [9]: 30; Foxtail, Giant damage rating (100=total damage to plant; 0=no damage to plant) [9]: 70; damage to plant, Foxtail, Giant (100=total damage to plant; 0=no damage to plant) [9]: 80; Corn damage rating (corn (Zea mays) [10]): 0; Corn damage rating (100=total damage to plant; 0=no damage to plant) (corn (Zea mays) [10]): 0; damage to plant, Corn (100=total damage to plant; 0=no damage to plant) (corn (Zea mays) [10]): 10; Pigweed, Redroot damage rating [11]: 0; Pigweed, Redroot damage rating (100=total damage to plant; 0=no damage to plant) [11]: 20; damage to plant, Pigweed, Redroot (100=total damage to plant; 0=no damage to plant) [11]: 60; Morningglory, Ivy-leaved damage rating [12]: 0; Morningglory, Ivy-leaved damage rating (100=total damage to plant; 0=no damage to plant) [12]: 10; damage to plant, Morningglory, Ivy-leaved (100=total damage to plant; 0=no damage to plant) [12]: 20
